Consider three compounds from patent US9023789B2, “Amylin analogs and pharmaceutical compositions thereof” (Novo Nordisk A/S, priority 2012, dated 2015).

Numbered stars: 1 amine (or outer) side, 2 acyl side, 3 side chain; on linkers, the order of the positions; unused ones are H or OH. Bridge positions count the residues as written; N and C are the ends. Side chains are listed from the residue outwards. Peptide text beside a SMILES is read from it. * marks the point of attachment. C20 diacid = O=C(O)CCCCCCCCCCCCCCCCCCC(=O)*; γGlu = O=C(O)[C@H](CCC(=O)[*:2])N[*:1]; AEEA = NCCOCCOCC(=O)O

In this test the target is T1, human calcitonin (a) receptor in BHK570 cells (Homo sapiens, UniProt P30988).
T1 construct: expressed in transfected cells
T1 sequence (P30988 25-474): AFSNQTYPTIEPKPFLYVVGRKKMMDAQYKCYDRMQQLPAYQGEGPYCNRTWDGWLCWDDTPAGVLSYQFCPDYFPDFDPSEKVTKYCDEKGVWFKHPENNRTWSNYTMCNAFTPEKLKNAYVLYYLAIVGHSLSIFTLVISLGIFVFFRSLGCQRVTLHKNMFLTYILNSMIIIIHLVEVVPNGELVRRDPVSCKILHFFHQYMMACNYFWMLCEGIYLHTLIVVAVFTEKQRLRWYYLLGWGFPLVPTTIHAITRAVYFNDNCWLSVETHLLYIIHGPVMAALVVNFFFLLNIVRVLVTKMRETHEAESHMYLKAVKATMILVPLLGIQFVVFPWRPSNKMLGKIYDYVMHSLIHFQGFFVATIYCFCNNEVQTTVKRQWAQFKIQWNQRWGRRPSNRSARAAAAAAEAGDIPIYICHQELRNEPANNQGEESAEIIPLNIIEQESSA
Description: ASSAY (II)a functional assay, human calcitonin receptor (CRE luciferase). The test is classed as cell-based. As to conditions: read-out: hCTR funct. EC50. The method in brief: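 BHK cells stably carrying a CRE-luciferase reporter plus calcitonin receptor, or calcitonin receptor with RAMP-3 for the amylin 3(a) receptor, were seeded and kept overnight at 37° C. Compounds were added in assay medium with 10% FBS and 10 mM Hepes, pH 7.4, for 3 hours at 37° C, then luminescence was counted.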
For the compound `CC[C@H](C)[C@H](NC(=O)[C@H](C)NC(=O)CNC(=O)[C@H](Cc1ccccc1)NC(=O)[C@H](CC(N)=O)NC(=O)[C@@H]1CCCN1C(=O)[C@H](CO)NC(=O)[C@H](CO)NC(=O)[C@H](Cc1c[nH]cn1)NC(=O)[C@H](CCCNC(=N)N)NC(=O)[C@H](CC(C)C)NC(=O)[C@H](Cc1ccccc1)NC(=O)[C@H](CC(N)=O)NC(=O)[C@H](C)NC(=O)[C@H](CC(C)C)NC(=O)[C@H](CCCNC(=N)N)NC(=O)[C@H](CCC(N)=O)NC(=O)[C@@H](NC(=O)[C@H](C)NC(=O)[C@@H]1CSSC[C@H](NC(=O)[C@@H](N)CCCCNC(=O)COCCOCCNC(=O)CC[C@H](NC(=O)CCCCCCCCCCCCCCCCCCC(=O)O)C(=O)O)C(=O)N[C@@H](CC(N)=O)C(=O)N[C@@H]([C@@H](C)O)C(=O)N[C@@H](C)C(=O)N[C@@H]([C@@H](C)O)C(=O)N1)[C@@H](C)O)C(=O)N1CCC[C@H]1C(=O)N[C@@H](CO)C(=O)N[C@@H](CO)C(=O)N[C@H](C(=O)N[C@@H](CC(N)=O)C(=O)N[C@H](C(=O)NCC(=O)N[C@@H](CO)C(=O)N[C@@H](CC(N)=O)C(=O)N[C@H](C(=O)N[C@@H](Cc1ccc(O)cc1)C(N)=O)[C@@H](C)O)C(C)C)[C@@H](C)O` [Example 41], the EC50 (commonly the concentration giving half of the maximal effect) turned out to be 4.35 nM.

With `CC[C@H](C)[C@H](NC(=O)[C@H](C)NC(=O)CNC(=O)[C@H](Cc1ccccc1)NC(=O)[C@H](CC(N)=O)NC(=O)[C@@H]1CCCN1C(=O)[C@H](CO)NC(=O)[C@H](CO)NC(=O)[C@H](Cc1c[nH]cn1)NC(=O)[C@H](CCCNC(=N)N)NC(=O)[C@H](CC(C)C)NC(=O)[C@H](Cc1ccccc1)NC(=O)[C@H](CC(N)=O)NC(=O)[C@H](C)NC(=O)[C@H](CC(C)C)NC(=O)[C@H](CCCNC(=N)N)NC(=O)[C@H](CCC(N)=O)NC(=O)[C@@H](NC(=O)[C@H](C)NC(=O)[C@@H]1CSSC[C@H](NC(=O)[C@@H](N)CCCCNC(=O)COCCOCCNC(=O)CCCCCCCCCCCCCCCCCCC(=O)O)C(=O)N[C@@H](CC(N)=O)C(=O)N[C@@H]([C@@H](C)O)C(=O)N[C@@H](C)C(=O)N[C@@H]([C@@H](C)O)C(=O)N1)[C@@H](C)O)C(=O)N1CCC[C@H]1C(=O)N[C@@H](CO)C(=O)N[C@@H](CO)C(=O)N[C@H](C(=O)N[C@@H](CC(N)=O)C(=O)N[C@H](C(=O)NCC(=O)N[C@@H](CO)C(=O)N[C@@H](CC(N)=O)C(=O)N[C@H](C(=O)N[C@@H](Cc1ccc(O)cc1)C(N)=O)[C@@H](C)O)C(C)C)[C@@H](C)O` [Example 43], the 50% effective concentration (EC50) is 0.92 nM.

Consider `CC[C@H](C)[C@H](NC(=O)[C@H](C)NC(=O)CNC(=O)[C@H](Cc1ccccc1)NC(=O)[C@H](CC(N)=O)NC(=O)[C@@H]1CCCN1C(=O)[C@H](CO)NC(=O)[C@H](CO)NC(=O)[C@H](Cc1c[nH]cn1)NC(=O)[C@H](CCCNC(=N)N)NC(=O)[C@H](CC(C)C)NC(=O)[C@H](Cc1ccccc1)NC(=O)[C@H](CC(N)=O)NC(=O)[C@H](C)NC(=O)[C@H](CC(C)C)NC(=O)[C@H](CCCNC(=N)N)NC(=O)[C@H](CCC(N)=O)NC(=O)[C@@H](NC(=O)[C@H](C)NC(=O)[C@@H]1CSSC[C@H](NC(=O)[C@@H](N)CCCCNC(=O)COCCOCCNC(=O)CC[C@H](NC(=O)CCCCCCCCCCCCCCCCCCC(=O)O)C(=O)O)C(=O)N[C@@H](CC(N)=O)C(=O)N[C@@H]([C@@H](C)O)C(=O)N[C@@H](C)C(=O)N[C@@H]([C@@H](C)O)C(=O)N1)[C@@H](C)O)C(=O)N1CCC[C@H]1C(=O)N[C@@H](CO)C(=O)N[C@@H](CO)C(=O)N[C@H](C(=O)N[C@@H](CC(N)=O)C(=O)N[C@H](C(=O)NCC(=O)N[C@@H](CCCNC(=N)N)C(=O)N[C@@H](CC(N)=O)C(=O)N[C@H](C(=O)N[C@@H](Cc1ccc(O)cc1)C(N)=O)[C@@H](C)O)C(C)C)[C@@H](C)O` [Example 78] (H-K([AEEA-γGlu-C20 diacid])CNTATCATQRLANFLRHSSPNFGAIPSSTNVGRNTY-NH2; disulfide 2-7 (inferred)), for which the EC50 is 8.17 nM.
